Data reported in patent US20180369211A1, “METHODS AND COMPOSITIONS FOR TREATING NEURODEGENERATIVE DISORDERS” (Lysosomal Therapeutics Inc., priority 2016, published 2018).

Target: T1, acid ceramidase (Homo sapiens, UniProt Q13510)
T1 construct: host or cells: unnamed cells; lysate 'enriched with acid ceramidase'
T1 sequence (Q13510 22-395): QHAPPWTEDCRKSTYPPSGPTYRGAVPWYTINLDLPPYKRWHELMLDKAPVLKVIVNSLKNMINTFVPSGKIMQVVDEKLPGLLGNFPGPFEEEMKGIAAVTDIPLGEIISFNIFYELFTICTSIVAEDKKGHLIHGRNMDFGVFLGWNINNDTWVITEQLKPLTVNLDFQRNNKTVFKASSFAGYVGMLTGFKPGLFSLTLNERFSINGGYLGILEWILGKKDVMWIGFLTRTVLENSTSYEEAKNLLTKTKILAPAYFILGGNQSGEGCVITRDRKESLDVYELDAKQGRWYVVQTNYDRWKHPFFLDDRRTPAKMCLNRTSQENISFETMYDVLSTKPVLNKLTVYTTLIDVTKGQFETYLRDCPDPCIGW
Experiment: acid ceramidase fluorescent intensity assay with fluorogenic substrate Rbm 14-12
Format: biochemical
Conditions: cell lysates enriched with acid ceramidase, 1 hour pre-incubation, pH 4.5, substrate Rbm 14-12 at 6.3 μM, room temperature, 1 or two hours; read-out: average IC50 value for the 1 and 2 hour time points
Experimental: Inhibition of acid ceramidase activity by compound 25 of Table 1 was evaluated in a fluorescent intensity assay using a fluorogenic substrate Rbm 14-12 […]. Compound 25 was incubated with cell lysates enriched with acid ceramidase for 1 hour in an assay buffer containing 50 mM NaOAc and 100 mM NaCl at pH 4.5. The reaction was initiated by the addition of the substrate at a final concentration of 6.3 μM and the mixture was incubated at room temperature for 1 or two hours. At the appropriate time, the reaction was quenched by the addition of methanol and treated with NaIO4 (fresh 2.5 mg/ml solution was made in 100 mM glycine/NaOH buffer, pH 10.6), followed by incubation for 1 hour at room temperature. Fluorescent intensity was measured using a plate reader at ex 355 nm and em 460 nm.

IC50: 250 to 500 nM
SMILES: O=C(NCCCCc1ccccc1)n1c(=O)oc2cc(-c3ccc(F)cc3)ccc21 [compound 25, 6-(4-fluorophenyl)-2-oxo-N-(4-phenylbutyl)-1,3-benzoxazole-3-carboxamide]
